Results published in patent publication US11040987B2 (TenNor Therapeutics Limited, priority 2019, dated 2021).
pIC50: −log10 of the molar value. Values after ≈ are worked out from the molar mass of the structure shown.

Legend:
AmpC_AB = AmpC_AB (Acinetobacter baumannii, UniProt Q6DRA1); experiment: β-lactamase inhibition, spectrophotometric assay of nitrocefin hydrolysis; format: biochemical; details: Class C β-lactamase; 200 μM nitrocefin, 25° C., 2 hours; read-out: IC50 AmpC_AB
From the text: (§1) Hydrolytic inactivation of the β-lactam antibiotics by β-lactamases is the most widespread drug resistant mechanism and the most challenge clinically among Gram-negative bacterial pathogens. Based on the amino acid sequences, the β-lactamases are grouped into four classes (Ambler classification), of which A, C and D are serine hydrolases and B encompasses metallo-β-lactamases. The IC50 of selected derivatives disclosed herein (identified with reference to example number) plus six reference β-lactam or β-lactamase inhibitors were determined against 7 representative β-lactamases of various classes in a standard spectrophotometric assay of nitrocefin hydrolysis. The assay is performed in 384-well plate. The seven recombinant β-lactamases AmpC_AB (from A. baumannii), AmpC_PA (from P. aeruginosa), KPC-2, NDM-1, IMP-1, VIM-1 and OXA 24/40) are expressed and purified. The reaction buffer for class A, C and D enzymes is 100 mM Na2HPO4—KH2PO4 (pH 7.1) plus 0.005% Tween-20, and for class B enzymes 10 μM ZnSO4 is added. […] The 50 μL of reaction solution composed of 2 pM of β-lactamase, 200 μM of nitrocefin and series of 3-fold dilutions of test or control compounds are added by Cybio SELMA system into 384-plate and incubated in dark at 25° C. for 2 hours. The OD490 is read in MC SpectraMax Plus384 plate reader.

IMP-1 = molecular target: T1, IMP-1 (Serratia marcescens, UniProt P52699); experiment: as above; format: biochemical; details: class B β-lactamase, 10 μM ZnSO4; 200 μM nitrocefin, 25° C., 2 hours; read-out: IC50 IMP-1
T1 construct: made in house
From the text: as §1

KPC-2 = molecular target: T2, KPC-2 (Klebsiella pneumoniae, UniProt Q9F663); experiment: as above; format: biochemical; details: class A β-lactamase; 200 μM nitrocefin, 25° C., 2 hours; read-out: IC50 KPC-2
T2 construct: made in house
From the text: as §1

NDM-1 = molecular target: T3, NDM-1 (Klebsiella pneumoniae, UniProt C7C422); experiment: as above; format: biochemical; details: class B β-lactamase, 10 μM ZnSO4; 200 μM nitrocefin, 25° C., 2 hours; read-out: IC50 NDM-1
T3 construct: made in house
From the text: as §1

OXA 24/40 = molecular target: T4, OXA 24/40 (Acinetobacter baumannii, UniProt Q8RLA6); experiment: as above; format: biochemical
T4 construct: made in house
From the text: as §1

VIM-1 = molecular target: T5, VIM-1 (Pseudomonas aeruginosa, UniProt A0A0F7KYQ8); experiment: as above; format: biochemical; details: class B β-lactamase, 10 μM ZnSO4; 200 μM nitrocefin, 25° C., 2 hours; read-out: IC50 VIM-1
T5 construct: made in house
From the text: as §1

A. baumannii ATCC 19606 = experiment: MIC determination, broth microdilution, ESKAPE panel; format: cell-based; details: Acinetobacter baumannii, ATCC19606; iron-depleted cation-adjusted Mueller-Hinton broth, 2,2-dipyridyl 160 μM; 37° C., 18-20 hours; read-out: MIC A. baumannii ATCC 19606
Method: (§2) Minimum inhibitory concentration (MIC) is determined by a broth microdilution method according to the recommendation of the Clinical and Laboratory Standards Institute (CLSI) with minor modification. […] Strains of an ESKAPE panel (E. faecium ATCC 700221, S. aureus ATCC 29213, K. pneumoniae ATCC 43816, A. baumannii ATCC 19606, P. aeruginosa ATCC 27853 and Escherichia coli ATCC 25922) were obtained originally from the American Type Culture Collection (ATCC) and used for MIC determinations of compounds. The bacteria inoculum in the test is […].

E. faecium ATCC 700221 = experiment: as above; format: cell-based; details: Enterococcus faecium, ATCC700221; iron-depleted cation-adjusted Mueller-Hinton broth, 2,2-dipyridyl 160 μM; 37° C., 18-20 hours; read-out: MIC E. faecium ATCC 700221
Method: as §2

[1] = tested on: Escherichia coli ATCC 25922; experiment: as above; format: cell-based; details: ATCC25922, iron-depleted cation-adjusted Mueller-Hinton broth, 2,2-dipyridyl 160 μM, 37° C., 18-20 hours, read-out: MIC E. coli ATCC 25922
Method: as §2

K. pneumoniae ATCC 43816 = experiment: as above; format: cell-based; details: Klebsiella pneumoniae, ATCC43816; iron-depleted cation-adjusted Mueller-Hinton broth, 2,2-dipyridyl 160 μM; 37° C., 18-20 hours; read-out: MIC K. pneumoniae ATCC 43816
Method: as §2

P. aeruginosa ATCC 27853 = experiment: as above; format: cell-based; details: Pseudomonas aeruginosa, ATCC27853; iron-depleted cation-adjusted Mueller-Hinton broth, 2,2-dipyridyl 160 μM; 37° C., 18-20 hours; read-out: MIC P. aeruginosa ATCC 27853
Method: as §2

S. aureus ATCC 29213 = experiment: as above; format: cell-based; details: Staphylococcus aureus, ATCC29213; iron-depleted cation-adjusted Mueller-Hinton broth, 2,2-dipyridyl 160 μM; 37° C., 18-20 hours; read-out: MIC S. aureus ATCC 29213
Method: as §2

A.b TNP 41704 = experiment: MIC against A. baumannii clinical isolates, alone and in combination with antibiotics; format: cell-based; details: for MIC: Acinetobacter baumannii, TNP41704, Compounds alone, read-out: MIC A.b TNP 41704
A.b TNP 41708 = experiment: as above; format: cell-based; details: for MIC: Acinetobacter baumannii, TNP41708, read-out: MIC A.b TNP 41708
Method: as §2

A.b TNP 41709 = experiment: as above; format: cell-based; details: for MIC: Acinetobacter baumannii, TNP41709, Compounds alone, read-out: MIC A.b TNP 41709

| SMILES | pIC50 (AmpC_AB) | pIC50 (IMP-1) | pIC50 (NDM-1) | pIC50 (OXA 24/40) | pIC50 (VIM-1) | MIC (A. baumannii ATCC 19606) | MIC (E. faecium ATCC 700221) | MIC [1] | MIC (K. pneumoniae ATCC 43816) | MIC (P. aeruginosa ATCC 27853) | MIC (S. aureus ATCC 29213) | MIC (A.b TNP 41704) | MIC A.b TNP 41704 (A.b TNP 41704; Compounds + meropenem (1:1)) | MIC A.b TNP 41704 (A.b TNP 41704; Compounds + sulbactam (1:1)) | MIC (A.b TNP 41708) | MIC A.b TNP 41708 (A.b TNP 41708; Compounds + meropenem (1:1)) | MIC A.b TNP 41708 (A.b TNP 41708; Compounds + sulbactam (1:1)) | MIC (A.b TNP 41709) | MIC A.b TNP 41709 (A.b TNP 41709; Compounds + meropenem (1:1)) | MIC A.b TNP 41709 (A.b TNP 41709; Compounds + sulbactam (1:1)) | further results |
| --- | --- | --- | --- | --- | --- | --- | --- | --- | --- | --- | --- | --- | --- | --- | --- | --- | --- | --- | --- | --- | --- |
| O=C(NNC(=O)[C@@H]1CC[C@@H]2CN1C(=O)N2OS(=O)(=O)O)[C@@H]1CCCNC1 [Zidebactam, reference compound] | 6.61 | < 3.70 | < 3.70 | 4.29 | < 3.70 |  |  |  |  |  |  |  |  |  |  |  |  |  |  |  | pIC50 (KPC-2): 5.63 |
| O=C(NC1CCNCC1)[C@@H]1CC[C@@H]2CN1C(=O)N2OS(=O)(=O)O [Relebactam, reference compound] | 6.05 | < 3.70 | < 3.70 | < 3.70 | < 3.70 |  |  |  |  |  |  |  |  |  |  |  |  |  |  |  |  |
| NC(=O)[C@@H]1CC[C@@H]2CN1C(=O)N2OS(=O)(=O)O [Avibactam, reference compound] | 5.58 | < 3.70 | < 3.70 |  | < 3.70 |  |  |  |  |  |  |  |  |  |  |  |  |  |  |  |  |
| COc1ccc(C(=O)N/N=C/[C@@]2(C)[C@H](C(=O)O)N3C(=O)C[C@H]3S2(=O)=O)cc1 [Example 35, (2S,3R,5R)-3-((E)-(2-(4-methoxybenzoyl)hydrazono)methyl)-3-methyl-7-oxo-4-thia-1-azabicyclo[3.2.0]heptane-2-carboxylic acid 4,4-dioxide] |  |  |  |  |  | > 128 µg/mL | > 128 µg/mL | > 128 µg/mL | > 128 µg/mL | > 128 µg/mL | 128 µg/mL (≈ 324 µM) | > 128 µg/mL | 32 µg/mL | 4 µg/mL | > 128 µg/mL | 1 µg/mL | 16 µg/mL | > 128 µg/mL | 32 µg/mL | 4 µg/mL |  |
| CN(NC(=O)OC[C@@]1(C)[C@H](C(=O)O)N2C(=O)C[C@H]2S1(=O)=O)C(=O)c1ccc(O)c(O)c1Cl [Example 77] |  |  |  |  |  | 0.25 µg/mL (≈ 0.508 µM) | > 128 µg/mL | 64 µg/mL (≈ 130 µM) | 16 µg/mL (≈ 32.5 µM) | > 128 µg/mL | > 128 µg/mL | > 128 µg/mL | 16 µg/mL | 8 µg/mL | > 128 µg/mL | 32 µg/mL | 32 µg/mL | > 128 µg/mL | 16 µg/mL | 16 µg/mL |  |
